# Read-outs that look alike come from different tables or passages of the source.
# Assays:
# E. coli ATCC 25922 = experiment: checkerboard titration, gemifloxacin and cefaclor (MIC, FIC); assay type: cell-based, Escherichia coli
# Protocol: (§1) Checkerboard microtitre broth dilution plates were prepared using the Hamilton MicroLab AT Plus system (Reno, Nev.). Two-fold serial dilutions (50 μl) of cefotaxime were made in columns 1 through 11 of a microtitre plate. Two-fold serial dilutions of gemifloxacin were prepared manually and the MicroLab AT Plus was used to dispense 25 μl of gemifloxacin at each concentration into rows A through G of the microtitre plate. The concentration range tested varied for each drug/organism combination to encompass the MIC endpoints of the individual components. Column 12 contained two fold serial dilutions of gemifloxacin only, and row H contained two fold serial dilutions of cefotaxie only. The last well (H) in column 12 was used as a positive growth control well, containing only medium and test isolate.
# (§2) The bacteria were diluted to a 0.5 McFarland standard and then further diluted 1/50. Each well was inoculated with 25 μl of the isolate to give a final inoculum density of approximately 5×10^5 cfu/ml. The MicroLab AT Plus 2 was used to add the inoculum to the microtitre plates. After inoculation, the plates were covered with a 96 well microtitre plate lid and incubated at 35° C. in ambient air for 20–24 hours. A 10 μl aliquot of the inoculum was plated on trypticase soy agar containing 5% sheep blood to determine the purity of the final test inoculum.
# (§3) Following incubation, a microtitre mirror reader (Cooke Instruments Ltd., England) was used to assist in determining the microdilution MIC endpoints. The MIC was determined as the lowest concentration of compound that inhibited visible growth of the organism.
# (§4) The Fractional Inhibitory Concentrations (FICs) were calculated using the following formula: (A)/(MICA)+(B)/(MICB)=FICA+FICB=FICIndex wherein: • A is the MIC of drug A in the presence of drug B • B is the MIC of drug B in the presence of drug A • MIC A is the MIC of the organism to drug A alone • MIC B is the MIC of the organism to drug B alone • FIC A is the fractional inhibitory concentration of drug A • FIC B is the fractional inhibitory concentration of drug B
# (§5) The FIC indices were interpreted using the following criteria: • ≦0.5=Synergy • >0.5–1=Additive • >1–2=Indifference • >2=Antagonism
# 3) E. coli ATCC 25922 was obtained from the SmithKline Beecham Anti-Infectives Research Culture Collection and stored at −80° C. in 10% glycerol. Before testing, the isolate was passaged onto agar plates (trypticase soy agar containing 5% sheeps blood) from the frozen stock for two consecutive days. […]
# The combined effect of gemifloxacin and cefaclor was investigated in E. coli ATCC 25922 by using the checkerboard titration method described in Example 1. FIC Indices were calculated and interpreted as in Example 1.
# E. faecalis ATCC 29212 = experiment: checkerboard titration, gemifloxacin and cefotaxime (MIC, FIC); assay type: cell-based, Enterococcus faecalis
# Protocol: 1) The combined effect of gemifloxacin and cefotaxime was investigated in E. faecalis by using a checkerboard titration method. Evaluation for synergistic activity was carried out by calculation of fractional inhibitory concentrations (FICs) according to the method of Eliopoulos et al (1996, Antimicrobial Combinations, Antibiotics in Laboratory Medicine, Victor Lorian, 4th Edition, pp 337–338, Baltimore, Md., Williams and Wilkins).
# E. faecalis ATCC 29212 was obtained from the SmithKline Beecham Anti-Infectives Research Culture Collection and stored at −80° C. in 10% glycerol. Before testing, the isolate was passaged onto agar plates (trypticase soy agar containing 5% sheeps blood) from the frozen stock for two consecutive days. Cation adjusted Mueller Hinton broth (BBL, Cockeysville, Md.) was used for the isolate.
# as §1, §2, §3, §4, §5
# [1] = tested on: clinically isolated P. aeruginosa; experiment: checkerboard titration, gemifloxacin or ciprofloxacin with ceftazidime, 27 clinical isolates (Example 4); assay type: cell-based, Pseudomonas aeruginosa; conditions: for FICA: FIC of gemifloxacin; for Cgemifloxacin MIC: in combination with ceftazidime; for MIC: Pseudomonas aeruginosa, drug alone, read-out: gemifloxacin MIC
# Protocol: The test organisms were clinical isolates collected in Korea. Organisms were frozen at −70 C prior to testing. Testing was done by the checkerboard method in 96-well plates using Mueller-Hinton broth. […] Ceftazidime was also dispensed alone in the first row in the first column. Test strains of P. aeruginosa were grown for 18 h in Mueller-Hinton broth, and then these overnight cultures were diluted with the same fresh medium to the density of approximately 10^7 CFU/mL. The bacterial concentrations were determined by measuring optical density or turbidity of the suspension and were verified by standard colony counts on antibiotic-free agar plates. A diluted bacterial solution was applied to 96-well plates containing serially diluted antimicrobial agents to yield 10^4 CFU per spot. Plates were incubated aerobically overnight.
# Minimal inhibitory concentrations (MICs) for each separate drug were determined. For wells along the growth-no growth interface, synergy was determined by calculating the Fractional Inhibitory Concentration (FIC) index. The Fractional Inhibitory Concentration (FIC) indices were calculated using the following formula: FICindex=FICA+FICB=[A]/MICA+[B]/MICB • Wherein: • FICA(or B), is the FIC of drug A (or B) MICA (or B) is the MIC of the organism to drug A (or B) • A (or B) is concentration of drug A (or B) that is the lowest inhibitory concentration
# The FIC indices were interpreted using the following criteria: • ≦0.5=Synergy • >0.5–1.0=Additive • >1.0–4.0=Indifference • >4.0=Antagonism
# S. saprophyticus 662 = experiment: checkerboard titration, gemifloxacin and amoxicillin (MIC, FIC); assay type: cell-based, Staphylococcus saprophyticus
# Protocol: The concentration range tested varied for each drug/organism combination to encompass the MIC endpoints of the individual components. […] The last well (H) in column 12 was used as a positive growth control well, containing only medium and test isolate.
# The bacteria were diluted to a 0.5 McFarland standard and then further diluted 1/50. Each well was inoculated with 25 μl of the isolate to give a final inoculum density of approximately 5×10^5 cfu/ml. […] After inoculation, the plates were covered with a 96 well microtitre plate lid and incubated at 35° C. in ambient air for 20–24 hours. A 10 μl aliquot of the inoculum was plated on trypticase soy agar containing 5% sheep blood to determine the purity of the final test inoculum.
# 2) S. saprophyticus 662 was obtained from the SmithKline Beecham Anti-Infectives Research Culture Collection and stored at −80° C. in 10% glycerol. Before testing, the isolate was passaged onto agar plates (trypticase soy agar containing 5% sheeps blood) from the frozen stock for two consecutive days. Cation adjusted Mueller Hinton broth (BBL, Cockeysville, Md.) was used for the isolate.
# The combined effect of gemifloxacin and amoxicillin was investigated in S. saprophyticus 662 by using the checkerboard titration method described in Example 1.
# [2] = drug alone, no unit in this line (other lines μg/ml)
smiles,measurement,setting,value
"CO/N=C1\CN(c2nc3c(cc2F)c(=O)c(C(=O)O)cn3C2CC2)CC1CN (racemic) [gemifloxacin, (R,S)-7-(3-aminomethyl-4-methoxyiminopyrrolidin-1-yl)-1-cyclopropyl-6-fluoro-4-oxo-1,4-dihydro-1,8-naphthyridine-3-carboxylic acid]",MIC,"E. coli ATCC 25922; Escherichia coli, ATCC25922, in presence of cefaclor 1 μg/ml, read-out: gemifloxacin MIC",0.002 µg/mL
same,gemifloxacin MIC,E. coli ATCC 25922; [2],0.008
same,MIC,"E. faecalis ATCC 29212; Enterococcus faecalis, ATCC29212, in presence of cefotaxime 64 μg/ml, read-out: gemifloxacin MIC",0.008 µg/mL
same,gemifloxacin MIC,E. faecalis ATCC 29212; [2],0.03
same,gemifloxacin MIC,E. faecalis ATCC 29212; in presence of cefotaxime 16 μg/ml,0.008 µg/mL
same,gemifloxacin MIC,E. faecalis ATCC 29212; in presence of cefotaxime 32 μg/ml,0.008 µg/mL
same,MIC range,[1]; 27 clinically isolated P. aeruginosa,0.25 to 32 µg/mL
same,FICA,[1]; P. aeruginosa 6003,0.25
same,Cgemifloxacin MIC,[1]; P. aeruginosa 6003,0.25 µg/mL
same,FICA,[1]; P. aeruginosa 6021,0.25
same,Cgemifloxacin MIC,[1]; P. aeruginosa 6021,0.25 µg/mL
same,FICA,[1]; P. aeruginosa 6030,0.13
same,Cgemifloxacin MIC,[1]; P. aeruginosa 6030,0.125 µg/mL
same,FICA,[1]; P. aeruginosa 6045,0.25
same,Cgemifloxacin MIC,[1]; P. aeruginosa 6045,1 µg/mL
same,FICA,[1]; P. aeruginosa 6047,0.13
same,Cgemifloxacin MIC,[1]; P. aeruginosa 6047,1 µg/mL
same,FICA,[1]; P. aeruginosa 6113,0.25
same,Cgemifloxacin MIC,[1]; P. aeruginosa 6113,0.125 µg/mL
same,FICA,[1]; P. aeruginosa 6123,0.13
same,Cgemifloxacin MIC,[1]; P. aeruginosa 6123,0.125 µg/mL
same,FICA,[1]; P. aeruginosa 6173,0.13
same,Cgemifloxacin MIC,[1]; P. aeruginosa 6173,0.125 µg/mL
same,FICA,[1]; P. aeruginosa P032,0.13
same,Cgemifloxacin MIC,[1]; P. aeruginosa P032,0.0625 µg/mL
same,FICA,[1]; P. aeruginosa P036,0.13
same,Cgemifloxacin MIC,[1]; P. aeruginosa P036,1 µg/mL
same,FICA,[1]; P. aeruginosa P039,0.25
same,Cgemifloxacin MIC,[1]; P. aeruginosa P039,0.5 µg/mL
same,MIC,[1]; P. aeruginosa 6003,1 µg/mL
same,MIC,[1]; P. aeruginosa 6021,1 µg/mL
same,MIC,[1]; P. aeruginosa 6030,1 µg/mL
same,MIC,[1]; P. aeruginosa 6045,4 µg/mL
same,MIC,[1]; P. aeruginosa 6047,8 µg/mL
same,MIC,[1]; P. aeruginosa 6113,0.5 µg/mL
same,MIC,[1]; P. aeruginosa 6123,1 µg/mL
same,MIC,[1]; P. aeruginosa 6173,1 µg/mL
same,MIC,[1]; P. aeruginosa P032,0.5 µg/mL
same,MIC,[1]; P. aeruginosa P036,8 µg/mL
same,MIC,[1]; P. aeruginosa P039,2 µg/mL
same,MIC,"S. saprophyticus 662; Staphylococcus saprophyticus, 662, in presence of amoxicillin 0.125 μg/ml, read-out: gemifloxacin MIC",0.004 µg/mL
same,gemifloxacin MIC,S. saprophyticus 662; [2],0.016

# Reference: US7169792B2, “Method of treating bacterial infections using gemifloxacin or a salt thereof and a β-lactam antibiotic” (priority 2002, dated 2007)
